# How the values were obtained:
# [1] = test system: familiarisation process in mice; assay: light box/dark box test: familiarisation process (improvement of cognition); format: in vivo, mouse; set-up: Time in the box, dark (D): unit not given here
# Excerpt: The influence of this product on the familiarisation process of mice in the light box/dark box test described by J. M. Barnes et al., (Pharmacol. Biochem. Behav., 1990, 35, 955-962) is studied. On the one hand, the effect on learning (the speed of familiarisation) and on the other hand the capacity for blocking contrary effects produced by escopolamine are studied.
# The mouse is placed in the light zone of a box divided into two compartments, one brightly illuminated, the light box, and the other with little illumination, the dark box.
# 1) The number of times the mouse stands up on the hind paws in each compartment during a 5 minute period is counted (see Column 1 of the table below).
# 2) The activity in each compartment is given by counting the number of crossings through the squares which form the divisions of each compartment (see Column 2 of the table below).
# 3) The time passed in the dark box during the 5 minute counting period is determined (see Column 3 of the table below).
# 4) The initial latent period is determined, that is to say the time which elapses after the animal is placed in the light box, at the start of the test, before it enters the dark box (see Column 4 of the table below).
# Two treatments with the vehicle are administered to the control animals per day. Two doses of 0.00001 ng/kg p.o. of compound 42 are administered per day to the animals treated with this product. The same operation is repeated daily for 5 days.
# The animals learn to remain in the dark box for a longer period and to go into the box more rapidly.
# On day six escopolamine (2×0.25 mg/kg, i.p.) is administered.
# They recover the learned habit on day seven.
# [2] = test system: immobility of mice; assay: desperate behaviour test (antidepressant activity); format: in vivo, mouse; details: i.p.
# Experimental: The desperate behaviour test in mice, described by R. D. Porsolt et al. (Arch. Int. Pharmacodyn. 1977, 229, 327-336), is used.
# The animals are placed for 6 minutes in a cylinder containing water, from which they are not able to escape. The period of immobility between minutes 2 and 5 is determined for groups of 10 mice per dosage tested.
# The product studied is administered i.p. 1 hour before the test. In this test the immobility of the animals is explained as being produced by their depressed state resulting from being faced with an adverse and insoluble situation in a hostile environment such as water.
# In our test imipramine (30 mg/kg; i.p.) was used as reference product.
# [3] = day 1, 0.00001 ng/kg, p.o., twice per day
# [4] = day 2, 0.00001 ng/kg, p.o., twice per day
# [5] = day 3, 0.00001 ng/kg, p.o., twice per day
# [6] = day 4, 0.00001 ng/kg, p.o., twice per day
# [7] = day 5, 0.00001 ng/kg, p.o., twice per day
# [8] = day 6, after 2 treatments with escopolamine (0.25 mg/kg, i.p.), Example 42 at 0.00001 ng/kg p.o. twice per day
# [9] = day 7, 0.00001 ng/kg, p.o., twice per day
smiles,measurement,setting,value
"Cc1nc(Cl)c(Cl)n1CCCCN1CCN(c2ncccn2)CC1.O=C(O)CC(O)(CC(=O)O)C(=O)O [Example 42, 4,5-dichloro-2-methyl-1-{4-[4-(2-pyrimidinyl)-1-piperazinyl]-butyl}-1H-imidazole citrate]","Activity within 5 min. period, dark (D)",[1]; [3],82
same,"Activity within 5 min. period, light (L)",[1]; [3],36
same,Latent period L-D,[1]; [3],11
same,"No. of times standing erect within 5 min period, dark (D)",[1]; [3],79
same,"No. of times standing erect within 5 min period, light (L)",[1]; [3],23
same,"Time in the box, dark (D)",[1]; [3],60
same,"Activity within 5 min. period, dark (D)",[1]; [4],167
same,"Activity within 5 min. period, light (L)",[1]; [4],11
same,Latent period L-D,[1]; [4],2
same,"No. of times standing erect within 5 min period, dark (D)",[1]; [4],147
same,"No. of times standing erect within 5 min period, light (L)",[1]; [4],10
same,"Time in the box, dark (D)",[1]; [4],80
same,"Activity within 5 min. period, dark (D)",[1]; [5],179
same,"Activity within 5 min. period, light (L)",[1]; [5],10
same,Latent period L-D,[1]; [5],2
same,"No. of times standing erect within 5 min period, dark (D)",[1]; [5],156
same,"No. of times standing erect within 5 min period, light (L)",[1]; [5],8
same,"Time in the box, dark (D)",[1]; [5],79
same,"Activity within 5 min. period, dark (D)",[1]; [6],183
same,"Activity within 5 min. period, light (L)",[1]; [6],9
same,Latent period L-D,[1]; [6],1.5
same,"No. of times standing erect within 5 min period, dark (D)",[1]; [6],161
same,"No. of times standing erect within 5 min period, light (L)",[1]; [6],9
same,"Time in the box, dark (D)",[1]; [6],83
same,"Activity within 5 min. period, dark (D)",[1]; [7],176
same,"Activity within 5 min. period, light (L)",[1]; [7],12
same,Latent period L-D,[1]; [7],1
same,"No. of times standing erect within 5 min period, dark (D)",[1]; [7],151
same,"No. of times standing erect within 5 min period, light (L)",[1]; [7],11
same,"Time in the box, dark (D)",[1]; [7],82
same,"Activity within 5 min. period, dark (D)",[1]; [8],181
same,"Activity within 5 min. period, light (L)",[1]; [8],14
same,Latent period L-D,[1]; [8],1.5
same,"No. of times standing erect within 5 min period, dark (D)",[1]; [8],172
same,"No. of times standing erect within 5 min period, light (L)",[1]; [8],10
same,"Time in the box, dark (D)",[1]; [8],81
same,"Activity within 5 min. period, dark (D)",[1]; [9],187
same,"Activity within 5 min. period, light (L)",[1]; [9],8
same,Latent period L-D,[1]; [9],1
same,"No. of times standing erect within 5 min period, dark (D)",[1]; [9],181
same,"No. of times standing erect within 5 min period, light (L)",[1]; [9],8
same,"Time in the box, dark (D)",[1]; [9],83
same,effect on the effects of escopolamine,"[1]; escopolamine 2×0.25 mg/kg, i.p., day six",blocks the effects of escopolamine
same,cognition-improving activity,[1]; mice,has a cognition-improving activity
same,effect on the learning process,[1]; mice,improves the learning process
same,Period of immobility,"[2]; 1 mg/kg, p < 0.05, control 118 s",64 s
same,antidepressant activity (reduction of the period of immobility),[2]; mice,significantly reduces the period of immobility
